According to US9597295B2, “Diene compounds for use in human epidermal cell repair, and pharmaceutical and cosmetic compositions containing them” (GIULIANI S.P.A., priority 2009, dated 2017):

Legend:
IL-1α = IL-1α quantification in the growth medium using ELISA; format: cell-based, human; details: RHE growth medium, 0.1% single dose, after 24 h
Experimental: The release of IL-1α was assayed in 200 μl of the growth medium underneath the RHE at preset sampling times using a highly-sensitive, specific ELISA (enzyme-linked immunosorbent assay) kit according to the manufacturer's instructions. The end-product was quantified at 450 nm.
The underlying growth medium for each RHE was collected immediately after the recovery time and stored at −20° C. in plastic cryo-vials.
Before the test, the medium was conditioned at room temperature. The results were expressed as pg/ml of IL-1α. Concentrations between 3.9 and 250 pg/ml were considered within the range of sensitivity.

[1] = system: reconstructed human epidermis (RHE); assay: H&E histology of reconstructed human epidermis; format: cell-based; details: single acute administration at 0.1%
Excerpt: (§1) The RHE (SkinEthic®) 0.5 cm^2, which reproduces the morphology of the epidermis, was accurately characterised: a fully-differentiated epidermis develops after 17 days of airlift culture of NHK (normal human keratinocytes) from skin biopsies in a given medium (MCDB153).
At the end of the study period, the tissues were washed with PBC, fixed in 10% buffered formalin and prepared for histological examination.
The tissue was embedded in paraffin blocks and cut into sections (3-5μ thick) on a microtome. The sections were then transferred to slides, deparaffinised and rehydrated, then stained with haematoxylin and eosin (H&E).
The samples for histology were analysed under the microscope. The overall morphology and any changes by comparison with the negative controls were assessed and recorded in the laboratory report.
The samples for histology were analysed under the Leica microscope DM2500 and recorded using the Leica Application Suite (LAS) software.

cK-19 (KRT19) mRNA = assay: cK-19 mRNA expression by real-time PCR in reconstructed human epidermis; format: cell-based; details: RHE, single 20 μl dose at 0.1%
Experimental: as §1
(§2) On arrival, the RHE (day 11) were removed from the agarose nutrient solution under a flow of sterile air. The inserts were rapidly plated in six-well plates previously filled with 1 ml of growth medium each at 37° C., […], and 90% relative humidity, taking care to avoid any formation of bubbles underneath the insert.
The substances tested were solubilised in DMSO (Sigma) to obtain a final concentration of 0.2%.
This stock solution was diluted in PBS to achieve the 0.1% of active principle.
The solution was applied with care to each tissue using a micro-pipette in a single dose of 20 μl.
The method is based on the capacity of the glass fibres to bind the nucleic acid in chaotropic concentrated saline solutions. The samples are disrupted in a highly-concentrated solution of guanidinium salts that lyse the cells and inactivate the endogenous RNase. The lysate is diluted with ethanol to make the […] competent for binding with the glass fibre of the filter in the filter cartridge. The RNA binds to the filter, while the other cell components slide freely through the filter. The filter is then washed three times and the RNA is eluted in a solution with a very low ionic strength.
The rationale in this method is based on the use of random primers to begin cDNA synthesis that ensure an efficient synthesis of the first helix of all the RNA molecules present.
(§3) The “Applied Biosystems 7500 real-time PCR” instrument uses PCR chemistry based on fluorescence, the TaqMan assay.
(§4) This technique uses Taqman probes to identify the fluorescent signal: it is highly sensitive and consists in amplifying and quantifying a specific nucleic acid sequence. The PCR product is detected in real time. The DNA, cDNA or RNA are quantified by determining the cycle in which the PCR product can be identified first, and therefore not when the reaction has reached saturation. The product is quantified by detecting the fluorescence measured in each cycle: the entity of the signal is directly proportional to the quantity of product amplified.
The relative quantification is measured from the difference between the expression of the nucleic acid sequence of a sample being tested and the same sequence in the calibration sample.
Each biological sample was processed in triplicate. The Taqman gene expression assay and cDNA (25 ng) were added to the “2× TaqMan Universal PCR Master Mix”, making up to a total volume of 25 μl.
The tissues were homogenised in 300 μl of lysis buffer for […] extraction.
On day 1, the RHE were 12 days old. The substances being tested (in duplicate) and the controls were applied in a single dose (20 μl). The RHE were then incubated without further treatment for 24 hours.

cK-14 (KRT 14) mRNA = assay: cK-14 mRNA expression by real-time PCR in reconstructed human epidermis; format: cell-based; details: RHE, 0.1%, during the whole study, by comparison with the controls
Experimental: as §1, §2
The substances tested were solubilised in DMSO (Sigma) to obtain a final concentration of 0.2%. […]
as §3
as §4, with “amplified. […]” for “amplified.”

cK-10 = cK-10 immunohistochemical expression in the RHE (separate study); format: cell-based, human; details: day 17 of differentiation, versus untreated controls
Excerpt: Finally, in a separate study conducted using similar methods, the expression of cK-10 in the RHE was studied on days 15 and 17 of differentiation, recorded by its immunohistochemical expression. cK-10 is a marker of the terminal differentiation of the keratinocytes at granular and spinal level.

[2] = 24 hours of treatment, day 13, calibrated to DMSO controls
[3] = 48 hours of treatment, day 15, by comparison with the PBS control
[4] = 120 hours of treatment, day 17 (final differentiation), by comparison with the controls

Compound	release of IL-1α (IL-1α)	toxicity (histomorphological analysis, cK-16 expression, IL-1α release) [1]	cK-19 mRNA gene expression (cK-19 (KRT19) mRNA; [2])	cK-19 mRNA gene expression (cK-19 (KRT19) mRNA; [3])	cK-19 mRNA gene expression (cK-19 (KRT19) mRNA; [4])	cK-14 expression (marker of mitotic activity) (cK-14 (KRT 14) mRNA)	cK-10 immunohistochemical expression (cK-10)
C/C=C/C=C/C=C/C(=O)OCC [DPRT, 2E,4E,6E-Octa-2,4,6-trienoic acid ethyl ester]	no such release	no relevant signs of toxicity	much diminished	not diminished	up-regulation	–	–
C/C=C/C=C/C=C/CO [PRT, 2E,4E,6E-Octatrien-1-ol]	no such release	toxicity similar for retinol and 2,4,6-octatrien-1-ol	–	–	–	–	–
CC1=C(/C=C/C(C)=C/C=C/C(C)=C/CO)C(C)(C)CCC1 [RET, Retinol]	early but very low release	toxicity similar for retinol and 2,4,6-octatrien-1-ol	regulation level resembling the values of the calibrator	diminished	up-regulation	did not differ significantly	negative
